Measured values from patent US20220304918A1, “Oral Compositions Comprising Hops And Sweeteners” (The Proctor & Gamble Company, priority 2021, published 2022).
Where a SMILES comes first, the peptide text is derived from it.

assay: Peak sweetness intensity perception relative to sucrose (potency-normalized comparison); design: key: Quick: display a peak sweetness intensity faster than that experienced for sucrose; Slow: display a peak sweetness intensity slower than that experienced for sucrose; conditions: sucrose as reference
Description: The sweeteners listed in TABLE 1 have been categorized with respect to their peak sweetness intensity perception relative to sucrose as either quick or slow. Those sweeteners that have been categorized as “quick” display a peak sweetness intensity faster than that experienced for sucrose. Those sweeteners that have been categorized as “slow” display a peak sweetness intensity slower than that experienced for sucrose. Comparisons of peak sweetness intensity are made using potency-normalized comparisons to account for the different amounts of each ingredient to experience the same absolute peak sweetness.

Compound | Onset Speed Relative to Sucrose
Steviosides | Slow
OC[C@@H](O)[C@H](O)[C@@H](O)CO [Xylitol] | Quick
CC1=CC(=O)NS(=O)(=O)O1 [Acesulfame K] | Quick
O=C1NS(=O)(=O)c2ccccc21 [Saccharin] | Quick
OC[C@H]1O[C@H](O[C@]2(CCl)O[C@H](CCl)[C@@H](O)[C@@H]2O)[C@H](O)[C@@H](O)[C@H]1Cl [Sucralose] | Slow
OC[C@@H](O)[C@@H](O)CO [Erythritol] | Quick
COC(=O)[C@H](Cc1ccccc1)NC(=O)[C@@H](N)CC(=O)O [Aspartame] (H-Asp-Phe-OMe) | Slow
COC(=O)[C@H](Cc1ccccc1)NC(=O)[C@H](CC(=O)O)NCCC(C)(C)C [Neotame] | Slow
OC[C@@H](O)[C@@H](O)[C@H](O)[C@@H](O)CO [Sorbitol] | Quick
